Laboratory results taken from a compilation of properties of binary mixtures (doi:10.1021/ie303238h).

Experiment: xn = mol fraction of the nth substance listed
Conditions: 298.15 K, 100 kPa

Compound	viscosity (x1 = 1) [mPa·s]	viscosity (x1 = 0.2008) [mPa·s]	viscosity (x1 = 0.4356) [mPa·s]	viscosity (x1 = 0.494) [mPa·s]	viscosity (x1 = 0.5982) [mPa·s]	viscosity (x1 = 0.6996) [mPa·s]	viscosity (x1 = 0.8) [mPa·s]	viscosity (x1 = 0.9025) [mPa·s]	viscosity (x2 = 0.1009) [mPa·s]	viscosity (x2 = 0.2031) [mPa·s]	viscosity (x2 = 0.2951) [mPa·s]	viscosity (x2 = 0.4027) [mPa·s]	viscosity (x2 = 0.5989) [mPa·s]	viscosity (x2 = 0.8024) [mPa·s]	viscosity (x2 = 0.8996) [mPa·s]
CC[n+]1ccn(C)c1.O=S(=O)([N-]S(=O)(=O)C(F)(F)F)C(F)(F)F + CCCC[n+]1ccn(C)c1.CCOS(=O)(=O)[O-]	32.55														
CC[n+]1ccn(C)c1.O=S(=O)([N-]S(=O)(=O)C(F)(F)F)C(F)(F)F + CCOS(=O)(=O)[O-].CC[n+]1ccn(C)c1	32.55	90.6	72.5	67.8	58.31	50.07	43.24	37.67							
CCCC[n+]1ccn(C)c1.CCOS(=O)(=O)[O-] + CC[n+]1ccn(C)c1.O=S(=O)([N-]S(=O)(=O)C(F)(F)F)C(F)(F)F									212.4	172.4	139.9	109.3	69.7	47.55	39.59
